First: Cc1nnnn1-c1ccc(C(CC2CCCC2)C(=O)Nc2ccc(Br)cn2)cc1F (stereo not drawn) [Example 2, N-(5-Bromo-pyridin-2-yl)-3-cyclopentyl-2-[3-fluoro-4-(5-methyl-tetrazol-1-yl)-phenyl]-propionamide]
Second: Cc1nnnn1-c1ccc(C(CC2CCCC2)C(=O)Nc2nccs2)cc1Cl (stereo not drawn) [Example 3, 2-[3-Chloro-4-(5-methyl-tetrazol-1-yl)-phenyl]-3-cyclopentyl-N-thiazol-2-yl-propionamide]
The melting point of the first is lower: 73 to 78 °C for the first, 190 to 193 °C for the second.

First: CNC(=O)NC(=O)C(CC1CCCC1)c1ccc(-n2nnnc2C)c(Cl)c1 (stereo not drawn) [Example 11, 1-{2-[3-Chloro-4-(5-methyl-tetrazol-1-yl)-phenyl]-3-cyclopentyl-propionyl}-3-methyl-urea]
Second: CNC(=O)NC(=O)/C(=C/C1CCCC1)c1ccc(-n2nnnc2C)c(F)c1 [Example 22, (E)-1-{3-Cyclopentyl-2-[3-fluoro-4-(5-methyl-tetrazol-1-yl)-phenyl]-acryloyl}-3-methyl-urea]
The melting point of the first is lower: 185 to 186 °C for the first, 186 to 192 °C for the second.

First: Cc1nnnn1-c1ccc(/C(=C\C2CCCC2)C(=O)Nc2nccs2)cc1F [Example 12, (E)-3-Cyclopentyl-2-[3-fluoro-4-(5-methyl-tetrazol-1-yl)-phenyl]-N-thiazol-2-yl-acrlamide]
Second: Cc1nnnn1-c1cc(C(CC2CCCC2)C(=O)Nc2nccs2)ccc1S(C)(=O)=O (stereo not drawn) [Example 9, 3-Cyclopentyl-2-[4-methanesulfonyl-3-(5-methyl-tetrazol-1-yl)-phenyl]-N-thiazol-2-yl-propionamide]
The melting point of the first is higher: 158 to 162 °C for the first, 148 to 154 °C for the second.

— patent US6441180B1, “Tetrazolyl-phenyl actamide glucokinase activators” (Hoffmann-La Roche Inc., priority 2000, dated 2002)
